From patent US7473790B2 (Pfizer Inc., priority 2003, dated 2009)

Target: T1, HCV polymerase (Hepatitis C virus genotype 1b, UniProt P26663)
T1 construct: 2.5 pmoles (0.15 μg) HCV polymerase protein in a final volume of 75 μL
Experiment: HCV polymerase primer/template-directed transcription assay (32P-GTP incorporation, filter binding)
Format: biochemical
Settings: recombinant HCV polymerase; 30 minutes at 30° C.; concentration giving 50% inhibition of polymerase-directed transcription; read-out: IC50
Outline: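 IC50s come from triplicate cpm, refit with an enzyme-concentration (30 nM) correction when under 200 nM. Reactions ran 30 min at 30° C in Tris pH 7.2 with MgCl2, 1 μM GTP spiked with α-32P-GTP, biotin-dG12 primer and poly(rC)300 template, with 1% DMSO. Incorporated label was collected on DE filtermats and counted.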

T1 sequence (P26663 2420-3010): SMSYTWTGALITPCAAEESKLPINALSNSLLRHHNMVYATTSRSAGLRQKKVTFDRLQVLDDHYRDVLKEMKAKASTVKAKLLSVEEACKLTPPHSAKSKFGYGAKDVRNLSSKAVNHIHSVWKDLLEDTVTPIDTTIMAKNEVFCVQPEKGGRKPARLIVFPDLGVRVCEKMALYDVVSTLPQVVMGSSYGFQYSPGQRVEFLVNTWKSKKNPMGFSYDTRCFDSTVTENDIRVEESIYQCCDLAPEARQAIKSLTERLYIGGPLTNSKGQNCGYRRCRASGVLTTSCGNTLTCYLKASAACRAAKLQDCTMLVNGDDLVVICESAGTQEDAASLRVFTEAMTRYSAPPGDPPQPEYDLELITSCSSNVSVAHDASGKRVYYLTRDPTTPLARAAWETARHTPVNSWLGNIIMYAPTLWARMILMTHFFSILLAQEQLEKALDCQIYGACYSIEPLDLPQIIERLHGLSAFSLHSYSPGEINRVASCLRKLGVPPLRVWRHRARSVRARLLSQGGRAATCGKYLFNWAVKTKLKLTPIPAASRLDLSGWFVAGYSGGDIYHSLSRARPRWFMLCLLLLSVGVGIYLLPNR

Row | Structure (SMILES) | IC50
1 | COc1ccc(CCC2(C3CCCC3)CC(O)=C(Cc3nc4ccccc4c(=O)[nH]3)C(=O)O2)cc1Cl (centres unmarked) [B(55), 2-({6-[2-(3-Chloro-4-methoxyphenyl)ethyl]-6-cyclopentyl-4-hydroxy-2-oxo-5,6-dihydro-2H-pyran-3-yl}methyl)quinazolin-4(3H)-one] | 150 nM
2 | COc1ccc(CCC2(C3CCCC3)CC(O)=C(Cc3nc4ccsc4c(=O)[nH]3)C(=O)O2)cc1Cl (centres unmarked) [B(56), 2-({6-[2-(3-Chloro-4-methoxyphenyl)ethyl]-6-cyclopentyl-4-hydroxy-2-oxo-5,6-dihydro-2H-pyran-3-yl}methyl)thieno[3,2-d]pyrimidin-4(3H)-one] | 100 nM
3 | COc1ccc(CCC2(C3CCCC3)CC(O)=C(Cc3nc4cc(OC)c(OC)cc4c(=O)[nH]3)C(=O)O2)cc1Cl (centres unmarked) [B(57), 2-({6-[2-(3-chloro-4-methoxyphenyl)ethyl]-6-cyclopentyl-4-hydroxy-2-oxo-5,6-dihydro-2H-pyran-3-yl}methyl)-6,7-dimethoxyquinazolin-4(3H)-one] | 50 nM
4 | Cc1csc2nc(CC3=C(O)CC(CCc4ccc(OCC5CC5)c(Cl)c4)(C4CCCC4)OC3=O)cc(=O)n12 (centres unmarked) [B(58), 7-[(6-{2-[3-Chloro-4-(cyclopropylmethoxy)phenyl]ethyl}-6-cyclopentyl-4-hydroxy-2-oxo-5,6-dihydro-2H-pyran-3-yl)methyl]-3-methyl-5H-[1,3]thiazolo[3,2-a]pyrimidin-5-one] | 6200 nM
5 | COc1cc(OC)c(CCC2(C3CCCC3)CC(O)=C(Cc3cc(=O)n4c(C)csc4n3)C(=O)O2)cc1Cl (centres unmarked) [B(59), 7-({6-[2-(5-Chloro-2,4-dimethoxyphenyl)ethyl]-6-cyclopentyl-4-hydroxy-2-oxo-5,6-dihydro-2H-pyran-3-yl}methyl)-3-methyl-5H-[1,3]thiazolo[3,2-a]pyrimidin-5-one] | 6 nM
6 | COC(=O)Nc1cc(CC2=C(O)CC(CCc3ccc(OC)cc3)(C3CCCC3)OC2=O)on1 (centres unmarked) [B(60), Methyl 5-({6-cyclopentyl-4-hydroxy-6-[2-(4-methoxyphenyl)ethyl]-2-oxo-5,6-dihydro-2H-pyran-3-yl}methyl)isoxazol-3-ylcarbamate] | 540 nM
7 | COc1ccc(CCC2(C3CCCC3)CC(O)=C(Cc3cc(=O)n4c(C)csc4n3)C(=O)O2)cc1 (centres unmarked) [B(61), 7-({6-Cyclopentyl-4-hydroxy-6-[2-(4-methoxyphenyl)ethyl]-2-oxo-5,6-dihydro-2H-pyran-3-yl}methyl)-3-methyl-5H-[1,3]thiazolo[3,2-a]pyrimidin-5-one] | 120 nM
8 | CCc1noc(CC2=C(O)CC(CCc3cc(Cl)c(OC)cc3OC)(C3CCCC3)OC2=O)n1 (centres unmarked) [B(62), 6-[2-(5-Chloro-2,4-dimethoxyphenyl)ethyl]-6-cyclopentyl-3-[(3-ethyl-1,2,4-oxadiazol-5-yl)methyl]-4-hydroxy-5,6-dihydro-2H-pyran-2-one] | 200 nM
9 | COc1cc(OC)c(CCC2(C3CCCC3)CC(O)=C(Cc3nc4cc(OC)c(OC)cc4c(=O)[nH]3)C(=O)O2)cc1Cl (centres unmarked) [B(63), 2-({6-[2-(5-Chloro-2,4-dimethoxyphenyl)ethyl]-6-cyclopentyl-4-hydroxy-2-oxo-5,6-dihydro-2H-pyran-3-yl}methyl)-6,7-dimethoxyquinazolin-4(3H)-one] | 16 nM
10 | COc1cc(OC)c(CCC2(C3CCCC3)CC(O)=C(Cc3nc4ccsc4c(=O)[nH]3)C(=O)O2)cc1Cl (centres unmarked) [B(64), 2-({6-[2-(5-Chloro-2,4-dimethoxyphenyl)ethyl]-6-cyclopentyl-4-hydroxy-2-oxo-5,6-dihydro-2H-pyran-3-yl}methyl)thieno[3,2-d]pyrimidin-4(3H)-one] | 33 nM
11 | COc1cc(OC)c(CCC2(C3CCCC3)CC(O)=C(Cc3nc4ccccc4c(=O)[nH]3)C(=O)O2)cc1Cl (centres unmarked) [B(65), 2-({6-[2-(5-Chloro-2,4-dimethoxyphenyl)ethyl]-6-cyclopentyl-4-hydroxy-2-oxo-5,6-dihydro-2H-pyran-3-yl}methyl)quinazolin-4(3H)-one] | 110 nM
12 | COc1ccc(CCC2(C3CCCC3)CC(O)=C(Cc3cc(=O)[nH]c(-c4ccccn4)n3)C(=O)O2)cc1 (centres unmarked) [B(66), 6-({6-Cyclopentyl-4-hydroxy-6-[2-(4-methoxyphenyl)ethyl]-2-oxo-5,6-dihydro-2H-pyran-3-yl}methyl)-2-pyridin-2-ylpyrimidin-4(3H)-one] | 220 nM
13 | O=C1OC(CCc2ccc(OCc3ccccc3)cc2)(C2CCCC2)CC(O)=C1Cc1cc(=O)[nH]c(C2CC2)n1 (centres unmarked) [B(67), 6-[(6-{2-[4-(Benzyloxy)phenyl]ethyl}-6-cyclopentyl-4-hydroxy-2-oxo-5,6-dihydro-2H-pyran-3-yl)methyl]-2-cyclopropylpyrimidin-4(3H)-one] | 3200 nM
14 | COc1cc(OC)c(CCC2(C3CCCC3)CC(O)=C(Cc3nc(C)cc(=O)[nH]3)C(=O)O2)cc1Cl (centres unmarked) [B(68), 2-({6-[2-(5-Chloro-2,4-dimethoxyphenyl)ethyl]-6-cyclopentyl-4-hydroxy-2-oxo-5,6-dihydro-2H-pyran-3-yl}methyl)-6-methylpyrimidin-4(3H)-one] | 100 nM
15 | Cc1nc(CC2=C(O)CC(CCc3ccc(C(F)F)c(F)c3)(C3CCCC3)OC2=O)n(C)n1 (centres unmarked) [B(69), 6-Cyclopentyl-6-{2-[4-(difluoromethyl)-3-fluorophenyl]ethyl}-3-[(1,3-dimethyl-1H-1,2,4-triazol-5-yl)methyl]-4-hydroxy-5,6-dihydro-2H-pyran-2-one] | 800 nM
16 | Cc1nc(CC2=C(O)CC(CCc3ccc(OCC4CC4)c(Cl)c3)(C3CCCC3)OC2=O)n(C)n1 (centres unmarked) [B(70), 6-{2-[3-Chloro-4-(cyclopropylmethoxy)phenyl]ethyl}-6-cyclopentyl-3-[(1.3-dimethyl-1H-1,2,4-triazol-5-yl)methyl]-4-hydroxy-5,6-dihydro-2H-pyran-2-one] | 240 nM
17 | COc1cc(OC)c(CCC2(C3CCCC3)CC(O)=C(Cc3nc(C)nn3C)C(=O)O2)cc1Cl (centres unmarked) [B(71), 6-[2-(5-Chloro-2,4-dimethoxyphenyl)ethyl]-6-cyclopentyl-3-[(1,3-dimethyl-1H-1,2,4-triazol-5-yl)methyl]-4-hydroxy-5,6-dihydro-2H-pyran-2-one] | 80 nM
18 | COC(=O)Nc1cc(CC2=C(O)CC(CCc3ccc(C(F)F)c(F)c3)(C3CCCC3)OC2=O)on1 (centres unmarked) [B(72), Methyl 5-[(6-cyclopentyl-6-{2-[4-(difluoromethyl)-3-fluorophenyl]ethyl}-4-hydroxy-2-oxo-5,6-dihydro-2H-pyran-3-yl)methyl]isoxazol-3-ylcarbamate] | 1400 nM
19 | COc1cc(OC)c(CCC2(C3CCCC3)CC(O)=C(Cc3nc(-c4ccccn4)no3)C(=O)O2)cc1Cl (centres unmarked) [B(73), 6-[2-(5-Chloro-2,4-dimethoxyphenyl)ethyl]-6-cyclopentyl-4-hydroxy-3-[(3-pyridin-2-yl-1,2,4-oxadiazol-5-yl)methyl]-5,6-dihydro-2H-pyran-2-one] | 62 nM
20 | Cc1nc(CC2=C(O)CC(CCc3ccc(OC(F)F)c(Cl)c3)(C3CCCC3)OC2=O)n(C)n1 (centres unmarked) [B(74), 6-{2-[3-Chloro-4-(difluoromethoxy)phenyl]ethyl}-6-cyclopentyl-3-[(1,3-dimethyl-1H-1,2,4-triazol-5-yl)methyl]-4-hydroxy-5,6-dihydro-2H-pyran-2-one] | 3400 nM
21 | Cc1cc(C)n2nc(CC3=C(O)CC(CCc4ccc(C(C)(C)C#N)c(F)c4)(C4CCCC4)OC3=O)nc2n1 (centres unmarked) [B(75), 2-(4-{2-[2-Cyclopentyl-5-(5,7-dimethyl-[1,2,4]triazolo[1,5-a]pyrimidin-2-ylmethyl)-4-hydroxy-6-oxo-3,6-dihydro-2H-pyran-2-yl]-ethyl}-2-fluoro-phenyl)-2-methyl-propionitrile] | 3 nM
22 | Cc1cc(C)n2nc(CC3=C(O)CC(CCc4ccc(C5(C#N)CC5)c(F)c4)(C4CCCC4)OC3=O)nc2n1 (centres unmarked) [B(76), 1-(4-{2-[2-Cyclopentyl-5-(5,7-dimethyl-[1,2,4]triazolo[1,5-a]pyrimidin-2-ylmethyl)-4-hydroxy-6-oxo-3,6-dihydro-2H-pyran-2-yl]-ethyl}-2-fluoro-phenyl)-cyclopropanecarbonitrile] | 1 nM
23 | COc1ccc(CCC2(C3CCCC3)CC(=O)C(Cc3ccccc3)C(=O)O2)cc1 (centres unmarked) [B(77), 3-benzyl-6-cyclopentyl-6-[2-(4-methoxyphenyl)ethyl]dihydro-2H-pyran-2,4(3H)-dione] | 5500 nM
24 | COc1ccc(CCC2(C3CCCC3)CC(=O)C(Cc3ccccc3)C(=O)O2)cc1Cl (centres unmarked) [B(78), 3-benzyl-6-[2-(3-chloro-4-methoxyphenyl)ethyl]-6-cyclopentyldihydro-2H-pyran-2,4(3H)-dione] | 1000 nM
25 | C=CCC1C(=O)CC(CCc2ccc(OC)c(Cl)c2)(C2CCCC2)OC1=O (centres unmarked) [B(79), 3-allyl-6-[2-(3-chloro-4-methoxyphenyl)ethyl]-6-cyclopentyldihydro-2H-pyran-2,4(3H)-dione] | 2400 nM
26 | COc1ccc(CCC2(C3CCCC3)CC(=O)C(Cc3cccnc3)C(=O)O2)cc1Cl (centres unmarked) [B(80), 6-[2-(3-chloro-4-methoxyphenyl)ethyl]-6-cyclopentyl-3-(pyridin-3-ylmethyl)dihydro-2H-pyran-2,4(3H)-dione] | 560 nM
27 | COc1ccc(CCC2(C3CCCC3)CC(=O)C(Cc3ccccn3)C(=O)O2)cc1Cl (centres unmarked) [B(81), 6-[2-(3-chloro-4-methoxyphenyl)ethyl]-6-cyclopentyl-3-(pyridin-2-ylmethyl)dihydro-2H-pyran-2,4(3H)-dione] | ~240 nM
28 | COc1ccc(CCC2(C3CCCC3)CC(=O)C(Cc3ccncc3)C(=O)O2)cc1Cl (centres unmarked) [B(82), 6-[2-(3-chloro-4-methoxyphenyl)ethyl]-6-cyclopentyl-3-(pyridin-4-ylmethyl)dihydro-2H-pyran-2,4(3H)-dione] | 680 nM
29 | COc1ccc(CCC2(C3CCCC3)CC(=O)C(Cc3cn4cccnc4n3)C(=O)O2)cc1Cl (centres unmarked) [B(83), 6-[2-(3-chloro-4-methoxyphenyl)ethyl]-6-cyclopentyl-3-(imidazo[1,2-a]pyrimidin-2-ylmethyl)dihydro-2H-pyran-2,4(3H)-dione] | 360 nM
